Test results: patent publication US4371545A, “Isopropyl amine compounds” (Dolorgiet Beteiligungs GmbH, priority 1978, dated 1983)

Columns and labels:
[1] = system: heart beat frequency in resting position; assay: Effect on heart beat frequency in resting position in anaesthetized cats; format: in vivo, cat; details: for HR norm (bradycardial effect, heart beat frequency in resting position): anaesthetized cats, i.v., qualitative, 10 to 100 ug/kg
Excerpt: (§1) To provide an informative determination of the ED50 of the test preparation on isoprenalin-induced tachycardia of anaesthetized cats as well as qualitative determination of the characteristic effect of the preparation on blood pressure and heart beat frequency in resting position.
(§2) Anaesthetic: hexobarbital (Evipan-Na),
(§3) tromanometer; heart frequency
(§4) by means of the pulse wave
(§5) interval, using an HSE-EKA
(§6) sphygmograph or HSE frequency
(§7) The remaining data in the table refer to the characteristic effect of the test preparation on the heart beat frequency in resting position, arterial blood pressure in resting position, and reduction of isoprenalin-induced drop in blood pressure; the respective data are more of qualitative nature.

[2] = system: isoprenalin-induced tachycardia; assay: Inhibition of isoprenalin-induced tachycardia in anaesthetized cats; format: in vivo, cat; details: for ED50: Felis catus, iv, graphic extrapolation on dose-effect curve, read-out: ED50 (reduction of isoprenalin-induced tachycardia by 50%)
Experimental: A comparative screening test was conducted on anaestetized cats suffering from isoprenalin-induced tachycardia.
as §1
3.2 Test animals: male and female cats,
weighing 1.6 to 3.2 kg, un-
as §2
Respiration: spontaneous after tracheo-
femoralis for injection of
the test preparations; ca-
(§8) theterization of A. femo-
(§9) ralis for measuring arterial
(§10) blood pressure; blood coagu-
sodium heparinate, 600 units
(§11) phase and mean blood press-
(§12) ure, using a Statham press-
(§13) ure gauge and an HSE elec-
as §3, §4, §5, §6
3.3.2 Administration of the
Isoprenalin: i.v. injection; dose 0.3 to
1 μg/kg; volume administer-
ed: 0.1 ml/kg; intervals bet-
ween injections; 10 min.
i.v. injections, each 4 min.
prior to the next isoprenalin
injection; dosage range: 10
to 100 μg/kg and, respect.,
injection time: 10 sec.
3.3.3 Criteria determining
percentage reduction in iso-
prenalin-induced tachycardia;
measured at maximum efficien-
cy (4 min. after injection).
ED50 is determined by graph-
ic extrapolation on the
curves showing the effect-
iveness of the dose admini-
stered. ED50 means the dose
(μg/kg i.v.) required for
reducing tachycardia by
50% as compared to the ori-
Table 1 informs on the results of the above experiments. The quantitative criteria in this table are: reduction of isoprenalin-induced tachycardia in percent; ED50 determined by graphic extrapolation on the curve showing the effectiveness of the respective dose; and relative activity which may be calculated as quotient from the ED50 (μg/kg) of propranolol and the ED50 of the test preparation.

β-adrenergic = β-adrenergic blocking activity in mammals; format: in vivo; details: mammals such as mice, rats and cats
Excerpt: It is also to be expected that the above compound will have similar effects when administered to humans.

[3] = system: isoprenalin-induced drop in arterial blood pressure; assay: Reduction of isoprenalin-induced drop in arterial blood pressure in anaesthetized cats; format: in vivo, cat; details: for m BP Isopr. (reduction in mean, isoprenalin-induced drop in arterial blood pressure): i.v., qualitative, 10 to 100 ug/kg; for isoprenalin-induced drop in arterial blood pressure: summary in words
[4] = Acute toxicity (Litchfield and Wilcoxon); details: in vivo
Experimental: The acute toxicity of the inventive compound is determined by the method of Litchfield and Wilcoxon (J. Pharmacol. exp. Therap., 96 (1949), 99).

[5] = system: mean arterial blood pressure in resting position; assay: Effect on mean arterial blood pressure in resting position in anaesthetized cats; format: in vivo, cat; details: i.v., qualitative, 10 to 100 ug/kg
Excerpt: as §1, §2, §8, §9, §10, §11, §12, §13, §3, §7

Row | Structure (SMILES) | HR norm (bradycardial effect, heart beat frequency in resting position) [1] | reduction of frequency of heart beat in resting position ([1]; depending on the original position and the dose administered) | ED50 ([2]; anaesthetized cats) [mg/kg] | Rel. Activity (ED50 of propranolol / ED50 of test preparation) ([2]; based on ED50 of propranolol (=1)) | beta-blocking activity in the tests on isoprenalin-induced tachycardia ([2]; compared to propranolol, anaesthetized cats) | β-adrenergic blocking activity (β-adrenergic) | m BP Isopr. (reduction in mean, isoprenalin-induced drop in arterial blood pressure) [3] | isoprenalin-induced drop in arterial blood pressure [3] | LD50 ([4]; ip, mouse, female and male, in each case 10 female and male mice) [mg/kg] | LD50 ([4]; iv, mouse, female and male, in each case 10 female and male mice) [mg/kg] | LD50 ([4]; po, mouse, female and male, in each case 10 female and male mice) [mg/kg] | LD50 ([4]; rat, ip, female and male) [mg/kg] | LD50 ([4]; rat, iv, female) [mg/kg] | LD50 ([4]; rat, iv, male) [mg/kg] | LD50 ([4]; rat, po, female and male) [mg/kg] | m BP norm (effectiveness in lowering blood pressure, mean arterial pressure in resting position) [5]
1 | Cc1ccc([N+](=O)[O-])c(OCC(O)CNC(C)C)c1.Cl (centres unmarked) [Compound of the invention, 1-(5-methyl-2-nitrophenoxy)-2-hydroxy-3-isopropylaminopropane-hydrochloride] | + - +++ and d.d. | effectively reduced | 0.021 | 2.3 | good beta-blocking activity | demonstrated | + - +++R and d.d. | reliably reduced and blocked | 250 | 105 | 1280 | 192 | 68.9 | 80 | 1120 | 
2 | CC(C)NCC(O)COc1cccc2ccccc12 (centres unmarked) [Propranolol, reference compound] | + - +++ and d.d. |  | 0.048 |  |  |  | + - +++R and d.d. | reliably reduced and blocked |  |  |  |  |  |  |  | + - ++ and d.d.
